Results: patent US20080261994A1, “CYCLOPROPANE COMPOUNDS AND PHARMACEUTICAL USE THEREOF” (Japan Tobacco Inc., priority 2003, published 2008)
Read-outs that look alike come from different tables or passages of the source.

What was measured:
Format in all cases: biochemical
[1] = target: T1, Recombinant Human MMP-13 (Homo sapiens, UniProt P45452); test: MMP-13 inhibitory activity (MMP-13 specific fluorescent substrate with quencher)
T1 construct: purchased R&D systems 511-MM
How it was run: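 IC50 (μM) derived from % inhibition, normalised to wells without enzyme and without inhibitor, fluorescence read at 325/405 nm. Enzyme and compound preceded addition of the quenched 7-MCA…DPA substrate; Tris-HCl buffer, 25 °C for 1 h, acetic-acid stop.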

[2] = target: T2, aggrecanase-1 (Homo sapiens, UniProt O75173); test: Aggrecanase-1 inhibitory action (Particle Assay, GAG release from aggrecan-containing polyacrylamide particles)
T2 sequence (O75173 213-837): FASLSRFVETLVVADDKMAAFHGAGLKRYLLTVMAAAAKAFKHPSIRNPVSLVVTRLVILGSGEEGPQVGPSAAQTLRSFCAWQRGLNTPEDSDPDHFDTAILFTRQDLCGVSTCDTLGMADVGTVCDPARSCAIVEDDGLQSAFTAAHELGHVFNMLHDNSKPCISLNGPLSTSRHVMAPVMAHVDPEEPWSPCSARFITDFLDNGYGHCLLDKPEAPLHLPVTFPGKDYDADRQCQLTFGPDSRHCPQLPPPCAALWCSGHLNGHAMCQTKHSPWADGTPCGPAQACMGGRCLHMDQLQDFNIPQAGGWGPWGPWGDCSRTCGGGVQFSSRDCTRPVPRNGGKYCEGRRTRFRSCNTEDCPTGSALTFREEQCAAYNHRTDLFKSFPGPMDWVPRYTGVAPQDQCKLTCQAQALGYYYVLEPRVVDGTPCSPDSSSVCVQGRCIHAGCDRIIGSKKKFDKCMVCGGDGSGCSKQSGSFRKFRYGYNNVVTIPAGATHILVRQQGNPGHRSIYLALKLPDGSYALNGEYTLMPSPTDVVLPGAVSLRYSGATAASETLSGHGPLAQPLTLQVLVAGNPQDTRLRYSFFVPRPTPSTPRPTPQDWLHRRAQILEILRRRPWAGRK
How it was run: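 Readout was dimethylmethylene blue absorbance (595 nm) of glycosaminoglycan liberated into supernatant, calibrated with whale chondroitin sulfate. Substrate was aggrecan in polyacrylamide particles, digested 15 h at 37° C in Tris-HCl; TC50 (μM) derived from inhibition relative to no-enzyme and no-inhibitor controls.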

[3] = target: T3, MMP-1 (Homo sapiens, UniProt P03956); test: MMP-1 inhibitory action (Type I collagen Activity Measurement kit, FITC-labeled collagen type I)
T3 sequence (P03956 100-469): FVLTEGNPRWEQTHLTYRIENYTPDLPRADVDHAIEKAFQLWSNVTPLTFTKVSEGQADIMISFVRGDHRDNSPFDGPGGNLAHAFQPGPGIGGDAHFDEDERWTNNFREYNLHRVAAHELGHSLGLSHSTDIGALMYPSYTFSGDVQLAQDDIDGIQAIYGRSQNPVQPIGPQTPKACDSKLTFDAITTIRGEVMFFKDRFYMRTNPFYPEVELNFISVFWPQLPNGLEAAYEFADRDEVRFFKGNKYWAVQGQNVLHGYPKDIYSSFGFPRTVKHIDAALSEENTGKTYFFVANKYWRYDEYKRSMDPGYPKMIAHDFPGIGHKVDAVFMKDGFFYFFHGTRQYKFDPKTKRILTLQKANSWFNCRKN

[4] = Experimental Example 3, read-out: IC50 MMP13
[5] = Experimental Example 1, read-out: IC50 AG1
[6] = Experimental Example 2, read-out: IC50 MMP1
[7] = Recombinant Human MMP-13, fluorescent substrate, 25° C. for 1 h, read-out: IC50 MMP13 (Experimental Example 3)
[8] = aggrecanase-1 inhibitory action, read-out: IC50 AG1 (Experimental Example 1)
[9] = MMP-1 inhibitory action, FITC-labeled collagen type I, 37° C. for 3 hr, read-out: IC50 MMP1 (Experimental Example 2)

| Compound | IC50 [1, 4] [nM] | IC50 [2, 5] [nM] | IC50 [3, 6] [nM] | IC50 [1, 7] [nM] | IC50 [2, 8] [nM] | IC50 [3, 9] [nM] |
| --- | --- | --- | --- | --- | --- | --- |
| C[C@]1(c2ccccc2)C[C@@]1(NS(=O)(=O)c1ccc(-c2ccc(F)cn2)s1)C(=O)O [Example 2-416] | < 1000 | < 1000 | ≥ 1000 |  |  |  |
| CCNC(=O)c1ccc(S(=O)(=O)NC2(C(=O)O)CC2c2ccccc2)s1 (stereo not drawn) [Example 2-104] |  |  |  | ≥ 10000 | ≥ 10000 | ≥ 10000 |
| CC1[C@H](c2ccccc2)[C@]1(NS(=O)(=O)c1ccc(-c2cc(C(F)(F)F)on2)s1)C(=O)NO (stereo partly drawn) [Example 2-323] | < 100 | ≥ 1000 | ≥ 1000 |  |  |  |
| O=C(O)C1(NS(=O)(=O)c2ccc(-c3ccc(Cl)cc3)s2)CC1COc1ccccc1 (stereo not drawn) [Example 2-52] |  |  |  | < 1000 | < 1000 | ≥ 10000 |
| CC1[C@H](c2ccccc2)[C@]1(NS(=O)(=O)N1CCc2ccccc2C1)C(=O)O (stereo partly drawn) [Example 2-535] | ≥ 1000 | ≥ 1000 | ≥ 1000 |  |  |  |
| C[C@]1(c2ccccc2)C[C@@]1(NS(=O)(=O)c1ccc(-c2cccc(C(F)(F)CO)c2)s1)C(=O)O [Example 2-606] | ≥ 1000 | ≥ 1000 | ≥ 10000 |  |  |  |
| CNC(=O)Cc1ccc([C@@H]2C[C@]2(NS(=O)(=O)c2ccc(-c3cc(C(F)(F)F)on3)s2)C(=O)O)cc1 [Example 2-293] | < 100 | < 100 | < 1000 |  |  |  |
| O=C(O)C1(NS(=O)(=O)c2ccc(-c3ccc(Cl)cc3)s2)CC1c1ccc(OCc2ccccc2)cc1 (stereo not drawn) [Example 2-225] |  |  |  | < 1000 | ≥ 1000 | ≥ 10000 |
| CC1[C@H](c2ccccc2)[C@]1(NS(=O)(=O)N1CCn2c(nc3cc(Cl)ccc32)C1)C(=O)O (stereo partly drawn) [Example 2-445] | < 1000 | < 1000 | ≥ 10000 |  |  |  |
| O=C(O)C1(NS(=O)(=O)c2ccc(-c3cc(C(F)F)on3)s2)C2CCCc3ccccc3C21 (stereo not drawn) [Example 2-383] | < 100 | < 100 | < 1000 |  |  |  |
| O=C(O)[C@]1(NS(=O)(=O)c2ccc(-c3cccc(C(F)(F)F)c3)s2)C[C@@H]1c1ccccc1 [Example 2-134] |  |  |  | < 1000 | ≥ 10000 | ≥ 10000 |
| O=C(O)C1(NS(=O)(=O)c2ccc(-c3cc(C(F)(F)F)on3)s2)C2CCc3ccccc3C21 (stereo not drawn) [Example 2-351] | < 100 | < 100 | < 1000 |  |  |  |
| O=C(O)C1(NS(=O)(=O)c2cccs2)CC1c1ccccc1 (stereo not drawn) [Example 2-83] |  |  |  | ≥ 10000 | ≥ 10000 | ≥ 10000 |
| COCc1cn2cc(S(=O)(=O)N[C@@]3(C(=O)O)C[C@]3(C)c3ccccc3)sc2n1 [Example 2-519] | ≥ 1000 | ≥ 1000 | ≥ 1000 |  |  |  |
| COc1ccc(N2CCN(S(=O)(=O)NC3(C(=O)O)CC3c3ccccc3)CC2)cc1 (stereo not drawn) [Example 2-64] |  |  |  | ≥ 1000 | ≥ 10000 | ≥ 10000 |
| C[C@]1(c2ccccc2)C[C@@]1(NS(=O)(=O)c1ccc(-c2ccc(Cl)c(N)c2)s1)C(=O)O [Example 2-12, (1S,2R)-1-[5-(3-amino-4-chloro-phenyl)-thiophene-2-sulfonylamino]-2-methyl-2-phenyl-cyclopropanecarboxylic acid] |  |  |  | < 100 | < 100 | < 1000 |
| CC1(c2ccc(Cl)cc2)CC1(NS(=O)(=O)c1ccc(-c2cc(C(F)(F)F)on2)s1)C(=O)O (stereo not drawn) [Example 2-608] | < 1000 | < 100 | < 1000 |  |  |  |
| O=C(O)C1(NS(=O)(=O)c2ccc(-c3ccc(Cl)cc3)s2)CC1c1ccc(N2CCOCC2)cc1 (stereo not drawn) [Example 2-245] |  |  |  | < 1000 | ≥ 1000 | ≥ 10000 |
| CC1[C@H](c2ccccc2)[C@]1(NS(=O)(=O)c1ccc(-n2cc(I)cn2)s1)C(=O)O (stereo partly drawn) [Example 2-543] | < 100 | < 100 | < 100 |  |  |  |

| Compound | IC50 [1, 4] [nM] | IC50 [2, 5] [nM] | IC50 [3, 6] [nM] | IC50 [1, 7] [nM] | IC50 [2, 8] [nM] | IC50 [3, 9] [nM] |
| --- | --- | --- | --- | --- | --- | --- |
| CC(=O)c1ccc(S(=O)(=O)NC2(C(=O)O)CC2c2ccccc2)cc1 (stereo not drawn) [Example 2-80] |  |  |  | ≥ 10000 | ≥ 10000 | ≥ 10000 |
| CN1CCN(CC2(c3ccccc3)CC2(NS(=O)(=O)c2ccc(-c3cc(C(F)(F)F)on3)s2)C(=O)O)CC1 (stereo not drawn) [Example 2-342] | ≥ 1000 | < 1000 | ≥ 1000 |  |  |  |
| O=C(O)[C@]1(NS(=O)(=O)c2ccc(-c3cc(C(F)(F)F)on3)s2)C[C@@H]1c1ccc(CCCO)cc1 [Example 2-302] | < 100 | < 100 | < 1000 |  |  |  |
| O=C(O)C1(NS(=O)(=O)c2ccc(-c3ccc(Cl)cc3)s2)CC1c1cccc(OCCO)c1 (stereo not drawn) [Example 1-86] |  |  |  | < 1000 | < 1000 | ≥ 1000 |
| CC(=O)Nc1cccc(C2CC2(NS(=O)(=O)c2ccc(-c3ccc(Cl)cc3)cc2)C(=O)O)c1 (stereo not drawn) [Example 1-40] |  |  |  | < 100 | < 1000 | ≥ 1000 |
| CC1[C@H](c2ccccc2)[C@]1(NS(=O)(=O)N1CCN(c2ccc(C(F)(F)F)cc2)C(=O)C1)C(=O)O (stereo partly drawn) [Example 2-504] | < 1000 | ≥ 1000 | ≥ 1000 |  |  |  |
| O=C(NO)C1(NS(=O)(=O)c2ccc(-c3cc(C(F)(F)F)on3)s2)C2CCc3ccccc3C21 (stereo not drawn) [Example 2-486] | < 100 | < 1000 | < 1000 |  |  |  |
| O=C(O)C1(NS(=O)(=O)N2CCN(c3nc4ccccc4s3)CC2)CC1c1ccccc1 (stereo not drawn) [Example 2-157] |  |  |  | ≥ 1000 | ≥ 10000 | ≥ 10000 |
| CC1[C@H](c2ccccc2)[C@]1(NS(=O)(=O)N1CCN(c2ccc(Cl)c(F)c2)CC1)C(=O)O (stereo partly drawn) [Example 2-459] | < 100 | < 1000 | ≥ 1000 |  |  |  |
| CN1CC=C(c2ccc(S(=O)(=O)N[C@@]3(C(=O)O)C[C@@H]3c3ccccc3)s2)CC1 [Example 2-172] |  |  |  | ≥ 1000 | ≥ 10000 | ≥ 10000 |
| O=C(O)C1(NS(=O)(=O)c2ccc(-c3ccc(Cl)cc3)s2)C2CCCc3ccccc3C21 (stereo not drawn) [Example 2-8, (1R*,1aS*,8bS*)-1-[5-(4-chloro-phenyl)thiophene-2-sulfonylamino]-1,1a,2,3,4,8b-hexahydrobenzo[a]cyclopropane[c]cyclohepten-1-carboxylic acid] |  |  |  | < 100 | < 100 | ≥ 1000 |
| CC1[C@H](c2ccccc2)[C@]1(NS(=O)(=O)c1ccc(-n2cc(S(C)(=O)=O)cn2)s1)C(=O)O (stereo partly drawn) [Example 2-524] | < 100 | < 100 | < 100 |  |  |  |
| CC1[C@H](c2ccccc2)[C@]1(NS(=O)(=O)c1ccc(-c2cc(C(N)=O)on2)s1)C(=O)O (stereo partly drawn) [Example 2-578] | < 100 | < 1000 | ≥ 1000 |  |  |  |
| O=C(OCCc1ccccc1C1CC1(NS(=O)(=O)c1ccc(-c2cc(C(F)(F)F)on2)s1)C(=O)O)N1CCOCC1 (stereo not drawn) [Example 2-242] |  |  |  | < 100 | < 100 | ≥ 1000 |
| COc1ccc(CN2CCN(S(=O)(=O)N[C@@]3(C(=O)O)C(C)[C@@H]3c3ccccc3)CC2)cc1 (stereo partly drawn) [Example 2-536] | ≥ 1000 | ≥ 1000 | ≥ 1000 |  |  |  |
| COC(=O)c1cccc(C2CC2(NS(=O)(=O)c2ccc(-c3ccc(Cl)cc3)s2)C(=O)O)c1 (stereo not drawn) [Example 2-184] |  |  |  | < 1000 | < 100 | ≥ 1000 |
| CC1[C@H](c2ccccc2)[C@]1(NS(=O)(=O)c1ccc2nc(-c3ccccc3)[nH]c2c1)C(=O)O (stereo partly drawn) [Example 2-596] | < 1000 | < 1000 | ≥ 1000 |  |  |  |
| NCc1ccc(C2CC2(NS(=O)(=O)c2ccc(-c3ccc(Cl)cc3)s2)C(=O)O)cc1 (stereo not drawn) [Example 2-265] |  |  |  | < 1000 | < 1000 | ≥ 10000 |
| CCOC(=O)c1cnn(-c2ccc(S(=O)(=O)N[C@@]3(C(=O)O)C(C)[C@@H]3c3ccccc3)s2)c1 (stereo partly drawn) [Example 2-521] | < 100 | < 1000 | ≥ 1000 |  |  |  |
